Measurements taken from US20260325533A1, “CDK INHIBITOR COMPOUNDS” (ALEKSIA THERAPEUTICS, INC., priority 2023, published 2026).
Like-named read-outs stand apart in the source and are kept apart here. Values belong to the compound of their own block, whether it stands above or below them.

Experiments:
Type in all cases: biochemical
[1] = molecular target: CDK2/CCNE1 (Homo sapiens, UniProt P24941); assay: CDK2 homogeneous time-resolved fluorescence (HTRF) kinase assay; details: CDK2/CCNE
Method in brief: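 IC50 derived from 11-point, half-log dilutions (usually top 10 μM) of compound, 1% DMSO. Kinase (3 nM CDK2/CCNE1) was preincubated with compound 20 min, then phosphorylated 50 nM ULight-4E-BP1 peptide at 1 mM ATP for 60 min, 23 °C. Europium-antibody TR-FRET read after EDTA stop.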

[2] = molecular target: CDK1/CCNB1 (Homo sapiens, UniProt P06493); assay: CDK1 homogeneous time-resolved fluorescence (HTRF) kinase assay; details: CDK1/CCNB
Sequence of CDK1/CCNB1 (P06493 whole entry): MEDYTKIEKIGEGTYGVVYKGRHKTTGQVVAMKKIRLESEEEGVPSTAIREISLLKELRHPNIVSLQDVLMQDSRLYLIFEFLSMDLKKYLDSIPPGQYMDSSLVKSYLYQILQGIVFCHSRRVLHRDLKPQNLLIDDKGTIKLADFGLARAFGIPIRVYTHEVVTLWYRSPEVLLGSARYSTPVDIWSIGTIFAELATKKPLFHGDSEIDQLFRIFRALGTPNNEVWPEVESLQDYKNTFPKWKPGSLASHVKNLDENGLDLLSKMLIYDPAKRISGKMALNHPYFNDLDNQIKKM
Sequence of CDK1/CCNB1 (P14635 whole entry partner): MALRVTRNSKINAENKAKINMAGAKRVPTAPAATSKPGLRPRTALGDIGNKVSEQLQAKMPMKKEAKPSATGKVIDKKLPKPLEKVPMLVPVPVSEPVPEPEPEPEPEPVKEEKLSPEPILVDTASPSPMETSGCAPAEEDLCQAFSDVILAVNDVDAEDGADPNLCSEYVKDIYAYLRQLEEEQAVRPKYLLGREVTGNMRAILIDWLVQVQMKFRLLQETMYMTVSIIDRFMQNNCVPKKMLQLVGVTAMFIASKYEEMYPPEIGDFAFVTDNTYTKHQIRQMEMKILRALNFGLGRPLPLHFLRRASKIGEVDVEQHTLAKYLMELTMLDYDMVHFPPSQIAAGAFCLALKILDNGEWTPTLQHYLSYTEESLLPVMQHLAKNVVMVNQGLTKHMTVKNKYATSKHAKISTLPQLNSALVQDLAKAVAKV
Method in brief: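 Read-out: TR-FRET (Eu anti-phospho-4E-BP1 Thr37/46 antibody, 2 nM; 665 nm or 665/615 ratio) after 60 min phosphorylation of 50 nM ULight-peptide by 0.5 nM CDK1/CCNB1 at 1 mM ATP, 23 °C. Compound preincubated 20 min with enzyme; 1% DMSO.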

[3] = molecular target: CDK4/CCND3 (Homo sapiens, UniProt P11802); assay: CDK4 homogeneous time-resolved fluorescence (HTRF) kinase assay; details: CDK4/CCND
Sequence of CDK4/CCND3 (P11802 whole entry): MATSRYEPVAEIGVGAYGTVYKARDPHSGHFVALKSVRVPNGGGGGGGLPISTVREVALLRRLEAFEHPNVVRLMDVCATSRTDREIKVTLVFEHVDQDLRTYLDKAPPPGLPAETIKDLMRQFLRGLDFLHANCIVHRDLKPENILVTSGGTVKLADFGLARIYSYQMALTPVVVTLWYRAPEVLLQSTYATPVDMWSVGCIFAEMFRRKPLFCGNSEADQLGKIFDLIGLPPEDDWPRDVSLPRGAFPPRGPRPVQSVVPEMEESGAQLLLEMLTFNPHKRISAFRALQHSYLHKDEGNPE
Sequence of CDK4/CCND3 (P30281 whole entry partner): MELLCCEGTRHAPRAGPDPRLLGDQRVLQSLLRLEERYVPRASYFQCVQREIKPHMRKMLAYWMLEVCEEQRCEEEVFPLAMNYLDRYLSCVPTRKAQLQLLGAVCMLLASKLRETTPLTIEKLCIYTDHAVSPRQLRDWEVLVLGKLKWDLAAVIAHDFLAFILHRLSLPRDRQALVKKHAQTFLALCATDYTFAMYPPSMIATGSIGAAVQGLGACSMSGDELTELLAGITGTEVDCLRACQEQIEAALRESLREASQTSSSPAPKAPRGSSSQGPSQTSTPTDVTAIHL
Method in brief: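 IC50 values were derived from 11-point half-log dilutions, usually starting at 10 μM. Compound was first held for 20 min at 23 °C with 1.5 nM CDK4/CCND3. 1 mM ATP and 50 nM ULight-eIF4E-BP1 (Thr37/46) substrate were then added for 60 min, and the TR-FRET 665 nm signal was measured after EDTA stop and Eu-anti-phospho-4E-BP1 detection.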

[4] = molecular target: CDK6/CCND1 (Homo sapiens, UniProt Q00534); assay: CDK6 homogeneous time-resolved fluorescence (HTRF) kinase assay; details: CDK6/CCND
Sequence of CDK6/CCND1 (Q00534 whole entry): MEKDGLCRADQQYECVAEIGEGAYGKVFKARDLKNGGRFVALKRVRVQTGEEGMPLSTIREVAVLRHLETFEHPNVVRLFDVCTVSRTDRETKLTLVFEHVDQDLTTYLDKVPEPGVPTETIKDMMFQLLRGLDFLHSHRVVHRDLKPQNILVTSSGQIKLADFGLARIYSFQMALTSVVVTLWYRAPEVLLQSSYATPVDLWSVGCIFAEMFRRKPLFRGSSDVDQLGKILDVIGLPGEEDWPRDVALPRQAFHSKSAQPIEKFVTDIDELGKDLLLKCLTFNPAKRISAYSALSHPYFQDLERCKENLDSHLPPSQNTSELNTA
Sequence of CDK6/CCND1 (P24385 whole entry partner): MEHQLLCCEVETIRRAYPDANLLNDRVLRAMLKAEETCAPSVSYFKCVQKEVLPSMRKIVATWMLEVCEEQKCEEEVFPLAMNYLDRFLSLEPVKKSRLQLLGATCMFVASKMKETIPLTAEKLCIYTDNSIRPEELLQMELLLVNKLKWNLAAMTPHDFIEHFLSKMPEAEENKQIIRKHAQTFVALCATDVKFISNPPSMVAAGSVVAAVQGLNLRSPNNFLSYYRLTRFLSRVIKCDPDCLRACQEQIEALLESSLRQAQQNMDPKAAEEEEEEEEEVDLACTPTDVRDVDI
Method in brief: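 Recombinant CDK6/CCND1 (1 nM final) was preincubated with compound for 20 min at 23 °C in HEPES buffer with MgCl2, EGTA, DTT and Tween 20. Kinase reaction then ran 60 min at 23 °C with 1 mM ATP and 50 nM ULight-4E-BP1 (Thr37/46) peptide, and was stopped with EDTA.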

[5] = 25-250 nM marked x, read-out: CDK2/CCNE IC50 25-250 nM
[6] = >250 nM marked x, read-out: CDK1/CCNB IC50 >250 nM
[7] = >250 nM marked x, read-out: CDK4/CCND IC50 >250 nM
[8] = >250 nM marked x, read-out: CDK6/CCND IC50 >250 nM
[9] = <25 nM, read-out: CDK2/CCNE IC50, <25 nM
[10] = >250 nM, read-out: CDK1/CCNB IC50 >250 nM
[11] = 25-250 nM, read-out: CDK4/CCND IC50, 25-250 nM
[12] = 25-250 nM, 1 mM ATP, read-out: CDK6/CCND IC50, 25-250 nM
[13] = <25 nM, read-out: CDK2/CCNE IC50 <25 nM
[14] = x = IC50 >250 nM, read-out: CDK2/CCNE IC50 (>250 nM column)
[15] = x = IC50 >250 nM, read-out: CDK1/CCNB IC50 (>250 nM column)
[16] = x = IC50 >250 nM, read-out: CDK4/CCND IC50 (>250 nM column)
[17] = x = IC50 >250 nM, read-out: CDK6/CCND IC50 (>250 nM column)
[18] = x = IC50 25-250 nM, read-out: CDK2/CCNE IC50 (25-250 nM)

- IC50 [1, 9]: < 25 nM
- IC50 [2, 10]: > 250 nM
- IC50 [3, 11]: 25 to 250 nM
- IC50 [4, 12]: 25 to 250 nM
SMILES: Cc1c(-c2nccc3cnc(Nc4ccc(S(=O)(=O)NC5CCCN(C)C5)cc4)cc23)ccc2c1cnn2CC(C)(C)O (racemic) [Ex 761, 4-((5-(1-(2-hydroxy-2-methylpropyl)-4-methyl-1H-indazol-5-yl)-2,6-naphthyridin-3-yl)amino)-N-(1-methylpiperidin-3-yl)benzenesulfonamide]

- IC50 [1, 9]: < 25 nM
- IC50 [2, 10]: > 250 nM
- IC50 [3, 11]: 25 to 250 nM
- IC50 [4, 12]: 25 to 250 nM
SMILES: N=S(=O)(c1ccc(Nc2cc3c(C#Cc4cnc5c(c4)NC(=O)CO5)nccc3cn2)cc1)C1CCC1 (stereo not shown) [Example 686, 7-((7-((4-(cyclobutanesulfonimidoyl)phenyl)amino)-2,6-naphthyridin-1-yl)ethynyl)-1H-pyrido[2,3-b][1,4]oxazin-2(3H)-one]

- IC50 [1, 13]: < 25 nM
- IC50 ([2]; 25-250 nM marked x, read-out: CDK1/CCNB IC50 25-250 nM): 25 to 250 nM
- IC50 ([3]; <25 nM, read-out: CDK4/CCND IC50 <25 nM): < 25 nM
- IC50 ([4]; <25 nM, read-out: CDK6/CCND IC50 <25 nM): < 25 nM
SMILES: CS(=O)(=O)N1CCC(Nc2cc3c(N4CCCCC4)nc(C=O)cc3cn2)CC1 [Example 18, 7-((1-(methylsulfonyl)piperidin-4-yl)amino)-1-(piperidin-1-yl)-2,6-naphthyridine-3-carbaldehyde]

- IC50 [1, 14]: > 250 nM
- IC50 [2, 15]: > 250 nM
- IC50 [3, 16]: > 250 nM
- IC50 [4, 17]: > 250 nM
SMILES: CS(=O)(=O)c1ccc(Nc2cc3c(C#Cc4ccc(C(F)F)nc4)nccc3cn2)cc1 [Example 524, 5-((6-(difluoromethyl)pyridin-3-yl)ethynyl)-N-(4-(methylsulfonyl)phenyl)-2,6-naphthyridin-3-amine]

The remaining lines, values behind:

SMILES: Cc1nc(-c2nccc3cnc(Nc4ccc(S(C)(=O)=O)cc4)cc23)no1 [Ex 167, 5-(5-methyl-1,2,4-oxadiazol-3-yl)-N-(4-(methylsulfonyl)phenyl)-2,6-naphthyridin-3-amine]
- IC50 [1, 5]: 25 to 250 nM
- IC50 [2, 6]: > 250 nM
- IC50 [3, 7]: > 250 nM
- IC50 [4, 8]: > 250 nM

SMILES: CS(=O)(=O)c1ccc(Nc2cc3c(C#Cc4ccc(N5CCCC(Cl)(Cl)C5=O)cc4)nccc3cn2)cc1 [Ex 506, 3,3-dichloro-1-(4-((7-((4-(methylsulfonyl)phenyl)amino)-2,6-naphthyridin-1-yl)ethynyl)phenyl)piperidin-2-one]
- IC50 [1, 14]: > 250 nM
- IC50 [2, 15]: > 250 nM
- IC50 [3, 16]: > 250 nM
- IC50 [4, 17]: > 250 nM

SMILES: CS(=O)(=O)c1ccc(Nc2cc3c(C#Cc4ccnc(F)c4)nccc3cn2)cc1 [Ex 508, 5-((2-fluoropyridin-4-yl)ethynyl)-N-(4-(methylsulfonyl)phenyl)-2,6-naphthyridin-3-amine]
- IC50 [1, 18]: 25 to 250 nM
- IC50 [2, 15]: > 250 nM
- IC50 [3, 16]: > 250 nM
- IC50 [4, 17]: > 250 nM

SMILES: C=CS(=O)(=O)c1ccc(Nc2cc3c(-c4ccc5[nH]ncc5c4C)nccc3cn2)cc1 [Ex 245, 5-(4-methyl-1H-indazol-5-yl)-N-(4-(vinylsulfonyl)phenyl)-2,6-naphthyridin-3-amine]
- IC50 [1, 5]: 25 to 250 nM
- IC50 [2, 6]: > 250 nM
- IC50 [3, 7]: > 250 nM
- IC50 [4, 8]: > 250 nM

SMILES: O=C(ON1C(=O)CCC1=O)c1ccc(Nc2cc3c(C4=CCCCC4)nccc3cn2)cc1 [Ex 113, 2,5-dioxopyrrolidin-1-yl 4-((5-(cyclohex-1-en-1-yl)-2,6-naphthyridin-3-yl)amino)benzoate]
- IC50 [1, 13]: < 25 nM
- IC50 ([2]; <25 nM, read-out: CDK1/CCNB IC50 <25 nM): < 25 nM
- IC50 ([3]; 25-250 nM marked x, read-out: CDK4/CCND IC50 25-250 nM): 25 to 250 nM
- IC50 ([4]; 25-250 nM marked x, read-out: CDK6/CCND IC50 25-250 nM): 25 to 250 nM

SMILES: N=S(=O)(c1ccc(Nc2cc3c(C#Cc4cccnc4N)nccc3cn2)cc1)C1CCC1 (racemic) [Ex 416, (4-((5-((2-aminopyridin-3-yl)ethynyl)-2,6-naphthyridin-3-yl)amino)phenyl)(cyclobutyl)(imino)-l6-sulfanone]
- IC50 [1, 18]: 25 to 250 nM
- IC50 [2, 15]: > 250 nM
- IC50 [3, 16]: > 250 nM
- IC50 [4, 17]: > 250 nM
